Results as given in patent US12371453B2, “Polypeptide having antibacterial activity, composition for preventing or treating sepsis comprising same, and antibacterial composition” (priority 2019, dated 2025).
Values after ≈ are worked out from the molar mass of the structure shown. Read-outs that look alike come from different tables or passages of the source. Square brackets hold non-standard residues; d marks the D form. Peptide text beside a SMILES is read from it.

Legend:
[1] = system: Colistin resistant AB (Acinetobactor baumannii)
Method: (§1) The antibacterial activity was evaluated according to an antibacterial activity test method for measuring the minimum inhibitory concentration 50 (MIC50; the minimal concentration that kills 50% of bacteria).
(§2) More specifically, 100 μL of a medium was dispensed into each well of a 96-well plate, and in the first column, an antibiotic and a peptide in 200 μL of the medium were dispensed. 1/2 serial dilution was performed from columns 1 to 11 and five types of antibiotic-resistant bacteria (ESBL-resistant E. coli, carbapenem-resistant A. baumannii, carbapenem-resistant Klebsiella pneumoniae, carbapenem-resistant Pseudomonas aeruginosa, colistin-resistant Acinetobactor baumannii), which had been previously cultured, were diluted (OD600 nm value in dilution: approximately 0.0025) and dispensed into each well. The plate was incubated in a 37° C. incubator for 4 hours, and measured at OD600 nm.

[2] = system: ESBL (E. coli); settings: ESBL
Method: as §1, §2

[3] = system: CR-Klebsiella pneumoniae; settings: CR-
Method: as §1, §2

[4] = LTA binding by ITC analysis; settings: cell wall component of gram-positive bacteria (S. aureus)
Excerpt: (§3) The binding affinity to lipoteichoic acid (LTA) and lipoprotein (LPP), which are cell wall components of gram-positive bacteria (S. aureus), was confirmed through ITC analysis using allD FP13-NH2.
(§4) The binding affinity was confirmed using the ITC analysis method, and the experimental method in Example 1 was applied mutatis mutandis.

[5] = system: Escherichia coli DH5α (ATCC PTA-4750); assay: microbe, parasite or virus in culture; settings: Escherichia coli DH5α, 4 hours
Method: (§5) To compare the antibacterial activity between the four commercially available antibiotics (ampicillin, gentamicin, levofloxacin and imipenem) and the allD FP13-NH2 (AcOH) peptide, an antibacterial activity test was performed to measure the minimum inhibitory concentrations (MIC50 and MIC80) for gram-negative and gram-positive standard strains (Escherichia coli DH5α, Escherichia coli K1, Acinetobacter baumannii, Pseudomonas aeruginosa, Salmonella enteritidis, Salmonella typhimurium, and Klebsiella pneumoniae).
(§6) More specifically, 100 μL of a medium was dispensed into each well of a 96-well plate, and in the first column, an antibiotic and a peptide in 200 μL of the medium were dispensed. 1/2 serial dilution was performed from columns 1 to 11, and gram-negative and gram-positive bacteria which had been previously cultured were diluted (OD600 nm value in dilution: approximately 0.0025) and dispensed into each well. The plate was incubated in a 37° C. incubator for 4 hours, and measured at OD600 nm.

[6] = system: Pseudomanas aeruginosa PAO1 (ATCC 47085D-5); assay: microbe, parasite or virus in culture; settings: PAO1
Method: as §5, §6

[7] = system: Salmonela typhimurium (ATCC 53648); assay: microbe, parasite or virus in culture; settings: Salmonella typhimurium ATCC 53648
Method: as §5, §6

[8] = system: Salmonela enteritidis (ATCC 13076); assay: microbe, parasite or virus in culture; settings: ATCC 13076
Method: as §5, §6

[9] = system: Escherichia coli K1; assay: microbe, parasite or virus in culture; settings: K1
Method: as §5, §6

[10] = system: Acinetobacter baumannii (ATCC 19606); assay: microbe, parasite or virus in culture; settings: ATCC 19606
Method: as §5, §6

[11] = system: Klebiella pneumoniae (ATCC 13883); assay: microbe, parasite or virus in culture; settings: ATCC 13883
Method: as §5, §6

[12] = LPS binding affinity by Isothermal Titration Calorimeter (ITC); parameters: species or system E. coli K1
Excerpt: FPT (ADK 44-54) is denoted by wild type (WT), and peptides in which a point mutation occurred at various sites in WT were manufactured (FP3, FP5, FP6, and FP9). To increase the interaction with LPS in a residue sequence of FP3, peptides were designed based on FP3- and LPS-binding models (FP12-NH2 and FP13-NH2), and peptides were designed by additionally introducing a non-natural amino acid and an amino acid isomer (allomeric D-type amino acid) (allD FP12-NH2, allD FP13-NH2, allD FP-13-9a, allD FP-13-9w, allD FP-13-9k, and allD FP13-NH2 (AcOH)). In addition, an N-terminus PEGylated peptide (PEG-alld FP13-NH2 (AcOH)) was additionally designed, synthesized, and provided by ANYGEN, Co. Ltd. The binding affinity between each of the provided peptides and lipopolysaccharide (LPS) was confirmed through measuring the binding affinity (Kd) using Isothermal Titration Calorimeter (ITC).
Specifically, a method of analyzing binding affinity (Kd) between a peptide and LPS is as follows.
Measurement was carried out using a Malvern MicroCal PEAQ-ITC cell instrument, and the following pretreatment was carried out to confirm interaction with LPS. The amount and morphology of a sample cell are 300 μL and coin-shaped, fixed-in-place, respectively; a syringe rotation rate was 1,200 rpm; and a temperature was 30° C., 35° C. or 25° C.
Before the experiment, LPS and the peptide were previously diluted with PBS, thereby preparing 2 mM LPS and 0.2 mM peptide. 300 μL of the peptide was added into cells in the ITC instrument, which had been washed, and 40 μL of LPS was put into a syringe. After measurement conditions for ITC (temperature, number of injections) were set, the syringe was inserted into the cell, and ITC measurement was started. When the measurement was completed, analysis is performed, and the Kd values of LPS and the peptide were calculated.

[13] = system: E. coli; type: cell-based
[14] = system: trypsin, protease K, and chymotrypsin; settings: read out by antibacterial activity
[15] = system: lipoprotein (LPP); assay: LPP binding by ITC analysis; settings: cell wall component of gram-positive bacteria (S. aureus)
Excerpt: as §3, §4

CC(C)C[C@@H](NC(=O)[C@H](N)CCCCN)C(=O)N[C@H](CCCNC(=N)N)C(=O)N[C@@H](C(=O)N[C@H](CCCCN)C(=O)N[C@H](CC(C)C)C(=O)N[C@H](CCCNC(=N)N)C(=O)N[C@H](CCCNC(=N)N)C(=O)N[C@H](Cc1ccc(O)cc1)C(=O)N[C@H](CC(C)C)C(=O)N[C@H](CCCNC(=N)N)C(N)=O)C(C)C [allD FP13-NH2] (H-[dK][dL][dR][dV][dK][dL][dR][dR][dY][dL][dR]-NH2; N-terminus assumed)
MIC50, Colistin resistant AB [1]: <16 µg/mL | MIC50, ESBL (E. coli) [2]: <0.5 µg/mL | MIC50, CR-Klebsiella pneumoniae [3]: <8 µg/mL | binding to LTA (ITC) [4]: binds | MIC (μg/ml) 50% ([5]; 50% growth inhibition): <1.0 µg/mL | MIC (μg/ml) 80% ([5]; 80% growth inhibition): <2.0 µg/mL | MIC (μg/ml) 50% [6]: <0.5 µg/mL | MIC (μg/ml) 80% [6]: <1.0 µg/mL | MIC (μg/ml) 50% ([7]; 50% growth inhibition): <2.0 µg/mL | MIC (μg/ml) 80% ([7]; 80% growth inhibition): <4.0 µg/mL | MIC (μg/ml) 50% [8]: <1.0 µg/mL | MIC (μg/ml) 80% [8]: <2.0 µg/mL | MIC (μg/ml) 50% [9]: <2.0 µg/mL | MIC (μg/ml) 80% [9]: <4.0 µg/mL | MIC (μg/ml) 50% [10]: <4.0 µg/mL | MIC (μg/ml) 80% [10]: <8.0 µg/mL | MIC (μg/ml) 50% [11]: <0.5 µg/mL | MIC (μg/ml) 80% [11]: <1.0 µg/mL | LPS binding affinity (in words) ([12]; compared with FP1 (wild type, WT)): strong LPS binding affinity | Kd ([12]; peptide binding to LPS, read-out: Kd (calculated by ITC)): 4.78 µM | MIC50 [13]: 2 µM (≈ 3 µg/mL) | MIC90 [13]: 4 µM (≈ 6 µg/mL) | MIC90 ([13]; E. coli + 0.8 uM Chymotrypsin): 6(4~8) uM | MIC90 ([13]; E. coli + 0.8 uM protease K): 6(4~8) uM | resistance to the proteolytic enzyme [14]: much improved resistance | binding to LPP (ITC) [15]: binds
